Results published in US20250312499A1, “KISSPEPTIN RECEPTOR (KISS1R) TARGETED THERAPEUTICS AND USES THEREOF” (priority 2024, published 2025).
Square brackets hold non-standard residues; d marks the D form. Peptide text beside a SMILES is read from it. * marks the point of attachment. DOTA = O=C(O)CN1CCN(CC(=O)O)CCN(CC(=O)*)CCN(CC(=O)O)CC1; Gly(N-(3-F-4-Me-benzyl)) = Cc1ccc(CNCC(=O)*)cc1F; Butanoyl(4-(4-I-phenyl)) = O=C(CCCc1ccc(I)cc1)*; Butanoyl(4-(4-MePh)) = Cc1ccc(CCCC(=O)*)cc1; Api(1-amidino) = N=C(N)N1CCC(N)(C(=O)O)CC1; Hydrocinnamoyl(4-Me) = Cc1ccc(CCC(=O)*)cc1; Bip = N[C@@H](Cc1ccc(-c2ccccc2)cc1)C(=O)O; Hydrocinnamoyl(4-I) = O=C(CCc1ccc(I)cc1)*; d2Nal = N[C@H](Cc1ccc2ccccc2c1)C(=O)O; Cha = N[C@@H](CC1CCCCC1)C(=O)O; Lauroyl = CCCCCCCCCCCC(=O)*; Octanoyl = CCCCCCCC(=O)*; Api = NC1(C(=O)O)CCNCC1; PEG2 = NCCOCCOCCC(=O)O; Ahx = NCCCCCC(=O)O; azaGly = NNC(=O)O; Sar = CNCC(=O)O

Molecular target: human kisspeptin receptor (Homo sapiens (Human), UniProt Q969F8)
Sequence (Q969F8 whole entry): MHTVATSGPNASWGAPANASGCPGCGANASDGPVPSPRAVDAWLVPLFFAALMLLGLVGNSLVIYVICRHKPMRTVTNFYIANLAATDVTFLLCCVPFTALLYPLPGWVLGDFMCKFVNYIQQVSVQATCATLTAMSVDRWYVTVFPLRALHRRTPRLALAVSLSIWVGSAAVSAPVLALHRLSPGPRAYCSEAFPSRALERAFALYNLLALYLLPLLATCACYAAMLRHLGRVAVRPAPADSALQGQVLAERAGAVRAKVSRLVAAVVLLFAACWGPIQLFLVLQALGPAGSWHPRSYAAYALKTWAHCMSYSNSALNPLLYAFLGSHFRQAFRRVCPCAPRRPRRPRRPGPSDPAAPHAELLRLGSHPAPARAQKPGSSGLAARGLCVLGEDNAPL
Assay: Human KISS1R binding assay (membrane competition binding)
Conditions: 90 min at room temperature; competition with 0.2 nM [125I]-metastin (45-54); Flp-In T-Rex 293 kisspeptin membranes; metal complexes nonradioactive Ga, In, Lu; read-out: hKiSSR Binding Ki (90 min)
In short: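 Radioligand competition: 0.2 nM [125I]-metastin (45-54) displaced by test ligand (usually 0–10,000 nM) over 90 min at room temperature, pH 7.4 buffer with 0.1% BSA. Receptor source is crude membrane (5–10 μg) from tetracycline-induced Flp-In T-Rex 293 cells. Bound label filtered and counted; Ki from non-linear regression.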

Ki, < 10 nM:
CNCC(=O)N1CCC(NC(=O)[C@H](CC(C)C)NC(=O)NNC(=O)[C@H](CC2CCCCC2)NC(=O)[C@@H](NC(=O)[C@H](CC(N)=O)NC(=O)[C@H](CCCCNC(=O)CN2CCN(CC(=O)O)CCN(CC(=O)O)CCN(CC(=O)O)CC2)NC(=O)[C@@H](Cc2ccc(O)cc2)NC(=O)CCOCCOCCNC(=O)CCc2ccc(C)cc2)[C@@H](C)O)(C(=O)N[C@@H](Cc2c[nH]c3ccccc23)C(N)=O)CC1 [Compound 387] ({Hydrocinnamoyl(4-Me)-PEG2}-[dY]K(DOTA)NT[Cha][azaGly]L[Api](Sar)W-NH2)
CNCC(=O)N1CCC(NC(=O)[C@H](CC(C)C)NC(=O)NNC(=O)[C@H](Cc2ccccc2)NC(=O)[C@@H](NC(=O)[C@H](CC(N)=O)NC(=O)[C@H](Cc2ccc(-c3ccccc3)cc2)NC(=O)[C@@H](Cc2ccc(O)cc2)NC(=O)CCCCCNC(=O)CN2CCN(CC(=O)O)CCN(CC(=O)O)CCN(CC(=O)O)CC2)[C@@H](C)O)(C(=O)N[C@H](Cc2c[nH]c3ccccc23)C(N)=O)CC1 [Compound 389] ({DOTA-Ahx}-[dY][Bip]NTF[azaGly]L[Api](Sar)[dW]-NH2)
CC(=O)N[C@H](Cc1ccc(O)cc1)C(=O)N[C@H](Cc1c[nH]c2ccccc12)C(=O)N[C@@H](CC(N)=O)C(=O)N[C@H](C(=O)N[C@@H](Cc1ccccc1)C(=O)NNC(=O)N[C@@H](CC(C)C)C(=O)NC1(C(=O)N[C@@H](Cc2c[nH]c3ccccc23)C(N)=O)CCN(C(=O)CNCc2ccc(C)c(F)c2)CC1)[C@@H](C)O [Compound 390] (Ac-[dY][dW]NTF[azaGly]L[Api](Gly(N-(3-F-4-Me-benzyl)))W-NH2)
CC(=O)N[C@H](Cc1ccc(O)cc1)C(=O)N[C@H](Cc1c[nH]c2ccccc12)C(=O)N[C@@H](CC(N)=O)C(=O)N[C@H](C(=O)N[C@@H](CC1CCCCC1)C(=O)NNC(=O)N[C@@H](CC(C)C)C(=O)NC1(C(=O)N[C@@H](Cc2c[nH]c3ccccc23)C(N)=O)CCN(C(=O)CNCc2ccc(C)c(F)c2)CC1)[C@@H](C)O [Compound 391] (Ac-[dY][dW]NT[Cha][azaGly]L[Api](Gly(N-(3-F-4-Me-benzyl)))W-NH2)
CC(=O)N[C@@H](Cc1ccccc1)C(=O)NNC(=O)N[C@@H](CC(C)C)C(=O)NC1(C(=O)N[C@@H](Cc2c[nH]c3ccccc23)C(N)=O)CCN(C(=O)CNCc2ccc(C)c(F)c2)CC1 [Compound 392] (Ac-F[azaGly]L[Api](Gly(N-(3-F-4-Me-benzyl)))W-NH2)
CNCC(=O)N1CCC(NC(=O)[C@H](CC(C)C)NC(=O)NNC(=O)[C@H](Cc2ccccc2)NC(=O)[C@@H](NC(=O)[C@H](CC(N)=O)NC(=O)[C@@H](Cc2ccc3ccccc3c2)NC(=O)[C@@H](Cc2ccc(O)cc2)NC(C)=O)[C@@H](C)O)(C(=O)N[C@@H](Cc2c[nH]c3ccccc23)C(N)=O)CC1 [Compound 393] (Ac-[dY][d2Nal]NTF[azaGly]L[Api](Sar)W-NH2)
CC(C)C[C@H](NC(=O)NNC(=O)[C@H](Cc1ccccc1)NC(=O)[C@@H](NC(=O)[C@H](CC(N)=O)NC(=O)[C@@H](Cc1ccc2ccccc2c1)NC(=O)[C@@H](Cc1ccc(O)cc1)NC(=O)CCOCCOCCNC(=O)CCc1ccc(I)cc1)[C@@H](C)O)C(=O)NC1(C(=O)N[C@@H](Cc2c[nH]c3ccccc23)C(N)=O)CCN(C(=N)N)CC1 [Compound 394] ({Hydrocinnamoyl(4-I)-PEG2}-[dY][d2Nal]NTF[azaGly]L[Api(1-amidino)]W-NH2)
CNCC(=O)N1CCC(NC(=O)[C@H](CC(C)C)NC(=O)NNC(=O)[C@H](Cc2ccccc2)NC(=O)[C@@H](NC(=O)[C@H](CC(N)=O)NC(=O)[C@@H](Cc2ccc3ccccc3c2)NC(=O)[C@@H](Cc2ccc(O)cc2)NC(=O)CCCc2ccc(I)cc2)[C@@H](C)O)(C(=O)N[C@@H](Cc2c[nH]c3ccccc23)C(N)=O)CC1 [Compound 395] ({Butanoyl(4-(4-I-phenyl))}-[dY][d2Nal]NTF[azaGly]L[Api](Sar)W-NH2)
CC(C)C[C@H](NC(=O)NNC(=O)[C@H](Cc1ccccc1)NC(=O)[C@@H](NC(=O)[C@H](CC(N)=O)NC(=O)[C@@H](Cc1ccc2ccccc2c1)NC(=O)[C@@H](Cc1ccc(O)cc1)NC(=O)CCOCCOCCNC(=O)CCc1ccc(I)cc1)[C@@H](C)O)C(=O)NC1(C(=O)N[C@@H](Cc2ccccc2)C(N)=O)CCN(C(=N)N)CC1 [Compound 396] ({Hydrocinnamoyl(4-I)-PEG2}-[dY][d2Nal]NTF[azaGly]L[Api(1-amidino)]F-NH2)
CC(C)C[C@H](NC(=O)NNC(=O)[C@H](Cc1ccccc1)NC(=O)[C@@H](NC(=O)[C@H](CC(N)=O)NC(=O)[C@@H](Cc1ccc2ccccc2c1)NC(=O)[C@@H](Cc1ccc(O)cc1)NC(=O)CCOCCOCCNC(=O)CCc1ccc(I)cc1)[C@@H](C)O)C(=O)NC1(C(=O)N[C@@H](Cc2ccc(O)cc2)C(N)=O)CCN(C(=N)N)CC1 [Compound 397] ({Hydrocinnamoyl(4-I)-PEG2}-[dY][d2Nal]NTF[azaGly]L[Api(1-amidino)]Y-NH2)
CNCC(=O)N1CCC(NC(=O)[C@H](CC(C)C)NC(=O)NNC(=O)[C@H](Cc2ccccc2)NC(=O)[C@@H](NC(=O)[C@H](CC(N)=O)NC(=O)[C@@H](Cc2ccc3ccccc3c2)NC(=O)[C@@H](Cc2ccc(O)cc2)NC(=O)CCCc2ccc(I)cc2)[C@@H](C)O)(C(=O)N[C@@H](Cc2ccccc2)C(N)=O)CC1 [Compound 398] ({Butanoyl(4-(4-I-phenyl))}-[dY][d2Nal]NTF[azaGly]L[Api](Sar)F-NH2)
CNCC(=O)N1CCC(NC(=O)[C@H](CC(C)C)NC(=O)NNC(=O)[C@H](Cc2ccccc2)NC(=O)[C@@H](NC(=O)[C@H](CC(N)=O)NC(=O)[C@@H](Cc2ccc3ccccc3c2)NC(=O)[C@@H](Cc2ccc(O)cc2)NC(=O)CCCc2ccc(I)cc2)[C@@H](C)O)(C(=O)N[C@@H](Cc2ccc(O)cc2)C(N)=O)CC1 [Compound 399] ({Butanoyl(4-(4-I-phenyl))}-[dY][d2Nal]NTF[azaGly]L[Api](Sar)Y-NH2)
CCCCCCCCCCCC(=O)N[C@H](Cc1ccc(O)cc1)C(=O)N[C@H](Cc1ccc2ccccc2c1)C(=O)N[C@@H](CC(N)=O)C(=O)N[C@H](C(=O)N[C@@H](Cc1ccccc1)C(=O)NNC(=O)N[C@@H](CC(C)C)C(=O)NC1(C(=O)N[C@@H](Cc2c[nH]c3ccccc23)C(N)=O)CCN(C(=O)CNC)CC1)[C@@H](C)O [Compound 400] (Lauroyl-[dY][d2Nal]NTF[azaGly]L[Api](Sar)W-NH2)
CCCCCCCCCCCC(=O)N[C@H](Cc1ccc(O)cc1)C(=O)N[C@H](Cc1ccc2ccccc2c1)C(=O)N[C@@H](CC(N)=O)C(=O)N[C@H](C(=O)N[C@@H](Cc1ccccc1)C(=O)NNC(=O)N[C@@H](CC(C)C)C(=O)NC1(C(=O)N[C@@H](Cc2ccc(O)cc2)C(N)=O)CCN(C(=O)CNC)CC1)[C@@H](C)O [Compound 401] (Lauroyl-[dY][d2Nal]NTF[azaGly]L[Api](Sar)Y-NH2)
Cc1ccc(CNCC(=O)N2CCC(NC(=O)[C@H](CC(C)C)NC(=O)NNC(=O)[C@H](Cc3ccccc3)NC(=O)[C@@H](NC(=O)[C@H](CC(N)=O)NC(=O)[C@@H](Cc3c[nH]c4ccccc34)NC(=O)[C@H](N)Cc3ccc(O)cc3)[C@@H](C)O)(C(=O)N[C@@H](Cc3c[nH]c4ccccc34)C(N)=O)CC2)cc1F [Compound 402] (H-[dY][dW]NTF[azaGly]L[Api](Gly(N-(3-F-4-Me-benzyl)))W-NH2)
Cc1ccc(CCCC(=O)N[C@H](Cc2ccc(O)cc2)C(=O)N[C@H](Cc2c[nH]c3ccccc23)C(=O)N[C@@H](CC(N)=O)C(=O)N[C@H](C(=O)N[C@@H](Cc2ccccc2)C(=O)NNC(=O)N[C@@H](CC(C)C)C(=O)NC2(C(=O)N[C@@H](Cc3c[nH]c4ccccc34)C(N)=O)CCN(C(=O)CNCc3ccc(C)c(F)c3)CC2)[C@@H](C)O)cc1 [Compound 403] ({Butanoyl(4-(4-MePh))}-[dY][dW]NTF[azaGly]L[Api](Gly(N-(3-F-4-Me-benzyl)))W-NH2)
Cc1ccc(CNCC(=O)N2CCC(NC(=O)[C@H](CC(C)C)NC(=O)NNC(=O)[C@H](CC3CCCCC3)NC(=O)[C@@H](NC(=O)[C@H](CC(N)=O)NC(=O)[C@@H](Cc3c[nH]c4ccccc34)NC(=O)[C@H](N)Cc3ccc(O)cc3)[C@@H](C)O)(C(=O)N[C@@H](Cc3c[nH]c4ccccc34)C(N)=O)CC2)cc1F [Compound 404] (H-[dY][dW]NT[Cha][azaGly]L[Api](Gly(N-(3-F-4-Me-benzyl)))W-NH2)
CCCCCCCC(=O)N[C@H](Cc1ccc(O)cc1)C(=O)N[C@H](Cc1c[nH]c2ccccc12)C(=O)N[C@@H](CC(N)=O)C(=O)N[C@H](C(=O)N[C@@H](CC1CCCCC1)C(=O)NNC(=O)N[C@@H](CC(C)C)C(=O)NC1(C(=O)N[C@@H](Cc2c[nH]c3ccccc23)C(N)=O)CCN(C(=O)CNCc2ccc(C)c(F)c2)CC1)[C@@H](C)O [Compound 405] (Octanoyl-[dY][dW]NT[Cha][azaGly]L[Api](Gly(N-(3-F-4-Me-benzyl)))W-NH2)
CNCC(=O)N1CCC(NC(=O)[C@H](CC(C)C)NC(=O)NNC(=O)[C@H](Cc2ccccc2)NC(=O)[C@@H](NC(=O)[C@H](CC(N)=O)NC(=O)[C@@H](Cc2ccc3ccccc3c2)NC(=O)[C@H](N)Cc2ccc(O)cc2)[C@@H](C)O)(C(=O)N[C@@H](Cc2ccccc2)C(N)=O)CC1 [Compound 406] (H-[dY][d2Nal]NTF[azaGly]L[Api](Sar)F-NH2)
CNCC(=O)N1CCC(NC(=O)[C@H](CC(C)C)NC(=O)NNC(=O)[C@H](Cc2ccccc2)NC(=O)[C@@H](NC(=O)[C@H](CC(N)=O)NC(=O)[C@@H](Cc2ccc3ccccc3c2)NC(=O)[C@H](N)Cc2ccc(O)cc2)[C@@H](C)O)(C(=O)N[C@@H](Cc2ccc(O)cc2)C(N)=O)CC1 [Compound 407] (H-[dY][d2Nal]NTF[azaGly]L[Api](Sar)Y-NH2)
